Assay results published in PubChem BioAssay AID248 (DTP/NCI, 2004).
Inconclusive results and toxic doses are left out. No stated cut-off is given here; in the data, active means T/C of 150% or more; inactive means T/C below 125%.

Test system: L1210 leukemia ip in BDF1 mice, survival T/C
Experiment: NCI In Vivo Anticancer Drug Screen. Data for tumor model L1210 Leukemia (intraperitoneal) in B6D2F1 (BDF1) mice
Details: endpoint: mean survival time, higher = longer survival
How it was run: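 Transplantable tumor model; survival measured in treated vs vehicle control mice. Value = treated/control.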

[1] = dose: 100.0 mg/kg/injection, schedule: Q04DX003 (ip), vehicle: saline with Tween-80
[2] = dose: 200.0 mg/kg/injection, schedule: Q04DX003 (ip), vehicle: saline with Tween-80
[3] = dose: 400.0 mg/kg/injection, schedule: Q04DX003 (ip), vehicle: saline with Tween-80
[4] = dose: 50.0 mg/kg/injection, schedule: Q01DX001 (ip), vehicle: saline
[5] = dose: 100.0 mg/kg/injection, schedule: Q01DX001 (ip), vehicle: saline
[6] = dose: 200.0 mg/kg/injection, schedule: Q01DX001 (ip), vehicle: saline
[7] = dose: 400.0 mg/kg/injection, schedule: Q01DX001 (ip), vehicle: saline
[8] = dose: 100.0 mg/kg/injection, schedule: Q04DX002 (ip), vehicle: saline with Tween-80
[9] = dose: 200.0 mg/kg/injection, schedule: Q04DX002 (ip), vehicle: saline with Tween-80
[10] = dose: 400.0 mg/kg/injection, schedule: Q04DX002 (ip), vehicle: saline with Tween-80
[11] = dose: 100.0 mg/kg/injection, schedule: Q04DX003 (ip), vehicle: saline
[12] = dose: 200.0 mg/kg/injection, schedule: Q04DX003 (ip), vehicle: saline
[13] = dose: 400.0 mg/kg/injection, schedule: Q04DX003 (ip), vehicle: saline
[14] = dose: 100.0 mg/kg/injection, schedule: Q04DX002 (ip), vehicle: Klucel (hydroxypropylcellulose) (HPC)
[15] = dose: 200.0 mg/kg/injection, schedule: Q04DX002 (ip), vehicle: Klucel (hydroxypropylcellulose) (HPC)
[16] = dose: 400.0 mg/kg/injection, schedule: Q04DX002 (ip), vehicle: Klucel (hydroxypropylcellulose) (HPC)
[17] = dose: 100.0 mg/kg/injection, schedule: Q04DX002 (ip), vehicle: saline
[18] = dose: 200.0 mg/kg/injection, schedule: Q04DX002 (ip), vehicle: saline
[19] = dose: 400.0 mg/kg/injection, schedule: Q04DX002 (ip), vehicle: saline
[20] = dose: 100.0 mg/kg/injection, schedule: Q01DX009 (ip), vehicle: Klucel (hydroxypropylcellulose) (HPC)
[21] = dose: 75.0 mg/kg/injection, schedule: Q01DX001 (ip), vehicle: other
[22] = dose: 150.0 mg/kg/injection, schedule: Q01DX001 (ip), vehicle: other
[23] = dose: 200.0 mg/kg/injection, schedule: Q01DX009 (ip), vehicle: Klucel (hydroxypropylcellulose) (HPC)
[24] = dose: 100.0 mg/kg/injection, schedule: Q01DX001 (ip), vehicle: carboxymethylcellulose (CMC)
[25] = dose: 200.0 mg/kg/injection, schedule: Q01DX001 (ip), vehicle: carboxymethylcellulose (CMC)
[26] = dose: 400.0 mg/kg/injection, schedule: Q01DX001 (ip), vehicle: carboxymethylcellulose (CMC)

Measured: T/C

CN=C(N)Nc1ccc(C(=O)O)cc1
inactive: dose: 100.0 mg/kg/injection, schedule: Q01DX009 (ip), vehicle: water 102 % of control | dose: 100.0 mg/kg/injection, schedule: Q04DX003 (ip), vehicle: water 106 % of control | dose: 200.0 mg/kg/injection, schedule: Q01DX009 (ip), vehicle: water 107 % of control | dose: 200.0 mg/kg/injection, schedule: Q04DX003 (ip), vehicle: water 89 % of control | dose: 400.0 mg/kg/injection, schedule: Q01DX009 (ip), vehicle: water 106 % of control | dose: 400.0 mg/kg/injection, schedule: Q04DX003 (ip), vehicle: water 91 % of control

CNC(=O)Nc1cc2ccccc2o1
inactive: [1] 101 % of control | [2] 92 % of control | [3] 92 % of control

O=P1(Nc2ccc(Cl)cc2)OCC2(CO1)COP(=O)(Nc1ccc(Cl)cc1)OC2 (stereo not given)
inactive: [4] 98 % of control | [5] 93 % of control | [6] 101 % of control | [7] 117 % of control

N#CCCN/N=C\c1ccc2c(c1)OCO2
inactive: [4] 95 % of control | [5] 97 % of control | [6] 95 % of control | [7] 95 % of control

O=C1OC(/C=C/c2ccccc2)=NC/1=C\c1ccccc1
inactive: [8] 92 % of control | [9] 95 % of control | [10] 92 % of control

CC(C)=CCCC(=O)Oc1ccccc1C(=O)O
inactive: [11] 99 % of control | [12] 91 % of control | [13] 93 % of control

O=C1NC(=S)S/C1=C/c1ccco1
inactive: [14] 105 % of control | [15] 98 % of control | [16] 105 % of control

Brc1ccc(C2CCCCC2)cc1
inactive: [1] 97 % of control | [2] 93 % of control | [3] 101 % of control

CCCCCCCCc1ccccc1
inactive: [17] 99 % of control | [18] 96 % of control | [19] 99 % of control

Cc1ccc2c(ccc[n+]2C)c1
inactive: dose: 75.0 mg/kg/injection, schedule: Q01DX001 (ip), vehicle: saline 103 % of control | dose: 150.0 mg/kg/injection, schedule: Q01DX001 (ip), vehicle: saline 106 % of control

c1ccc2c(c1)ccc1ccc3cccc[n+]3c12
inactive: dose: 1.25 mg/kg/injection, schedule: Q01DX001 (ip), vehicle: saline 93 % of control | dose: 2.5 mg/kg/injection, schedule: Q01DX001 (ip), vehicle: saline 102 % of control | dose: 5.0 mg/kg/injection, schedule: Q01DX001 (ip), vehicle: saline 108 % of control | dose: 10.0 mg/kg/injection, schedule: Q01DX001 (ip), vehicle: saline 102 % of control

COP(=O)(OC)C(O)C(Cl)Cl (stereo not given)
inactive: [17] 115 % of control | [18] 104 % of control | [19] 104 % of control

Cc1ccc(N2C=C(c3ccccc3)CC2=O)cc1
inactive: [8] 107 % of control | [9] 100 % of control | [10] 104 % of control

CS(=O)(=O)OCCN(CCOS(C)(=O)=O)c1ccc(C=Nc2ccc(-c3cnc(-c4ccc(Cl)cc4)s3)cc2)c(Cl)c1
inactive: dose: 25.0 mg/kg/injection, schedule: Q01DX009 (ip), vehicle: Klucel (hydroxypropylcellulose) (HPC) 98 % of control | dose: 50.0 mg/kg/injection, schedule: Q01DX009 (ip), vehicle: Klucel (hydroxypropylcellulose) (HPC) 107 % of control | [20] 109 % of control

Nc1cc(Cl)c2n[nH]nc2n1
inactive: [21] 96 % of control | [22] 102 % of control | dose: 300.0 mg/kg/injection, schedule: Q01DX001 (ip), vehicle: other 100 % of control

O=S(NOCc1ccccc1)c1ccccc1 (stereo not given)
inactive: [14] 107 % of control | [15] 107 % of control | [16] 111 % of control

CC(=O)/C(=C\c1ccc(Cl)c(Cl)c1)C(=O)c1ccccc1
inactive: dose: 100.0 mg/kg/injection, schedule: Q01DX009 (ip), vehicle: other 97 % of control | dose: 100.0 mg/kg/injection, schedule: Q04DX003 (ip), vehicle: other 95 % of control | dose: 200.0 mg/kg/injection, schedule: Q01DX009 (ip), vehicle: other 103 % of control | dose: 200.0 mg/kg/injection, schedule: Q04DX003 (ip), vehicle: other 91 % of control | dose: 400.0 mg/kg/injection, schedule: Q04DX003 (ip), vehicle: other 93 % of control

O=C1c2c(I)c(I)c(I)c(I)c2C(=O)N1CCO
inactive: [20] 92 % of control | dose: 100.0 mg/kg/injection, schedule: Q04DX003 (ip), vehicle: Klucel (hydroxypropylcellulose) (HPC) 94 % of control | [23] 97 % of control | dose: 200.0 mg/kg/injection, schedule: Q04DX003 (ip), vehicle: Klucel (hydroxypropylcellulose) (HPC) 97 % of control | dose: 400.0 mg/kg/injection, schedule: Q01DX009 (ip), vehicle: Klucel (hydroxypropylcellulose) (HPC) 104 % of control | dose: 400.0 mg/kg/injection, schedule: Q04DX003 (ip), vehicle: Klucel (hydroxypropylcellulose) (HPC) 92 % of control

Cc1cccnc1NC(=O)NCCCl
inactive: [24] 101 % of control | [20] 92 % of control | [11] 98 % of control | [25] 103 % of control | [23] 93 % of control | [12] 97 % of control | [26] 103 % of control | [13] 89 % of control

CP1CCC(O)(C(C)(C)C)CC1 (stereo not given)
inactive: [21] 101 % of control | [22] 91 % of control

CCCCC(=O)N/N=C\c1cccc([N+](=O)[O-])c1
inactive: [24] 92 % of control | [25] 92 % of control | [26] 95 % of control

COc1cc(NC(C)=O)ccn1
inactive: dose: 100.0 mg/kg/injection, schedule: Q04DX003 (ip), vehicle: acetone 89 % of control | dose: 200.0 mg/kg/injection, schedule: Q04DX003 (ip), vehicle: acetone 100 % of control | dose: 400.0 mg/kg/injection, schedule: Q04DX003 (ip), vehicle: acetone 110 % of control

CC(C)N(C(=O)C1C2CCC(CC2)C1C(=O)N(C(C)C)C(C)C)C(C)C (stereo not given)
inactive: [11] 100 % of control | [12] 100 % of control | [13] 100 % of control

COC1c2ccccc2CC1(C)C (stereo not given)
inactive: [17] 118 % of control | [18] 105 % of control | [19] 94 % of control

NCCc1nc(C(=O)O)cs1
inactive: [5] 104 % of control | dose: 100.0 mg/kg/injection, schedule: Q01DX009 (ip), vehicle: saline 86 % of control | [11] 103 % of control | [6] 102 % of control | dose: 200.0 mg/kg/injection, schedule: Q01DX009 (ip), vehicle: saline 97 % of control | [12] 119 % of control | [7] 104 % of control | dose: 400.0 mg/kg/injection, schedule: Q01DX009 (ip), vehicle: saline 86 % of control | [13] 92 % of control
